{"source": "ChEMBL document CHEMBL4406818", "about": "“Xanthone derivatives from the leaves of Garcinia oligantha” (2019)", "key": {"LNCaP [1]": {"system": "LNCaP", "assay": "Cytotoxicity against quiescent human LNCAP cells assessed as induction of cell death measured after 24 hrs by […] dye based fluorescence analysis", "type": "functional"}, "LNCaP [2]": {"system": "LNCaP", "assay": "Cytotoxicity against quiescent human LNCAP cells assessed as induction of cell death at 20 uM measured after 24 hrs by SYBR green dye based fluorescence analysis", "type": "functional"}, "LNCaP [3]": {"system": "LNCaP", "assay": "Induction of apoptosis in quiescent human LNCAP cells assessed as chromatin condensation at periphery of nucleus at 5 to 12 uM measured after 24 hrs by Hoechst staining based fluorescent microscopy", "type": "functional, cell-based"}, "LNCaP [4]": {"system": "LNCaP", "assay": "Induction of apoptosis in quiescent human LNCAP cells assessed as nucleus fragmentation at 5 to 12 uM measured after 24 hrs by Hoechst staining based fluorescent microscopy", "type": "functional, cell-based"}, "LNCaP [5]": {"system": "LNCaP", "assay": "Induction of cell death in quiescent human LNCAP cells assessed as proportion of dead cells at 5 uM measured after 24 hrs by propidium iodide staining based flow cytometry analysis (reference value: 4.90 %)", "type": "functional"}, "LNCaP [6]": {"system": "LNCaP", "assay": "Induction of cell death in quiescent human LNCAP cells assessed as proportion of dead cells at 7.5 uM measured after 24 hrs by propidium iodide staining based flow cytometry analysis (reference value: 4.90 %)", "type": "functional"}, "LNCaP [7]": {"system": "LNCaP", "assay": "Induction of cell death in quiescent human LNCAP cells assessed as proportion of dead cells at 10 uM measured after 24 hrs by propidium iodide staining based flow cytometry analysis (reference value: 4.90 %)", "type": "functional"}, "LNCaP [8]": {"system": "LNCaP", "assay": "Induction of apoptosis in quiescent human LNCAP cells assessed as decrease in Bcl-2 protein expression at 8 to 12 uM measured after 24 hrs by Western blot analysis", "type": "functional, cell-based"}, "LNCaP [9]": {"system": "LNCaP", "assay": "Induction of apoptosis in quiescent human LNCAP cells assessed as decrease in caspase-3 protein expression at 8 to 12 uM measured after 24 hrs by Western blot analysis", "type": "functional, cell-based"}, "LNCaP [10]": {"system": "LNCaP", "assay": "Induction of apoptosis in quiescent human LNCAP cells assessed as decrease in caspase-9 protein expression at 8 to 12 uM measured after 24 hrs by Western blot analysis", "type": "functional, cell-based"}, "LNCaP [11]": {"system": "LNCaP", "assay": "Induction of apoptosis in quiescent human LNCAP cells assessed as increase in caspase-3 activity at 8 to 12 uM measured after 24 hrs", "type": "functional, cell-based"}, "LNCaP [12]": {"system": "LNCaP", "assay": "Induction of cell death in quiescent human LNCAP cells assessed as proportion of live cells at 5 uM measured after 24 hrs by propidium iodide staining based flow cytometry analysis (reference value: 95.1%)", "type": "functional"}, "LNCaP [13]": {"system": "LNCaP", "assay": "Induction of cell death in quiescent human LNCAP cells assessed as proportion of live cells at 7.5 uM measured after 24 hrs by propidium iodide staining based flow cytometry analysis (reference value: 95.1%)", "type": "functional"}, "LNCaP [14]": {"system": "LNCaP", "assay": "Induction of cell death in quiescent human LNCAP cells assessed as proportion of live cells at 10 uM measured after 24 hrs by propidium iodide staining based flow cytometry analysis (reference value: 95.1%)", "type": "functional"}, "LNCaP [15]": {"system": "LNCaP", "assay": "Induction of apoptosis in quiescent human LNCAP cells assessed as chromatin condensation at periphery of nucleus at 5 to 12 uM measured after 24 hrs by phase contrast microscopy", "type": "functional, cell-based"}, "LNCaP [16]": {"system": "LNCaP", "assay": "Induction of apoptosis in quiescent human LNCAP cells assessed as nucleus fragmentation at 5 to 12 uM measured after 24 hrs by phase contrast microscopy", "type": "functional, cell-based"}, "LNCaP [17]": {"system": "LNCaP", "assay": "Induction of cell death in quiescent human LNCAP cells assessed as proportion of dead cells at 20 uM measured after 24 hrs by propidium iodide staining based flow cytometry analysis (reference value: 4.90 %)", "type": "functional"}, "LNCaP [18]": {"system": "LNCaP", "assay": "Induction of cell death in quiescent human LNCAP cells assessed as proportion of live cells at 20 uM measured after 24 hrs by propidium iodide staining based flow cytometry analysis (reference value: 95.1%)", "type": "functional"}}, "note": "Activity calls are given as the source filed them. No cut-off for these calls is given here."}
{"smiles": "COC(=O)[C@]1(O)C(=O)[C@](CC=C(C)C)(C/C=C(\\C)CCC=C(C)C)c2c1oc1c(CC=C(C)C)c(O)cc(O)c1c2=O", "values": [{"measurement": "Activity", "setting": "LNCaP [1]", "value": "Dose-dependent effect"}, {"measurement": "Activity", "setting": "LNCaP [2]", "value": "Active"}, {"measurement": "Activity", "setting": "LNCaP [3]", "value": "Active"}, {"measurement": "Activity", "setting": "LNCaP [4]", "value": "Active"}, {"measurement": "Activity", "setting": "LNCaP [5]", "value": 12.4, "unit": "%"}, {"measurement": "Activity", "setting": "LNCaP [6]", "value": 50.1, "unit": "%"}, {"measurement": "Activity", "setting": "LNCaP [7]", "value": 70.1, "unit": "%"}, {"measurement": "Activity", "setting": "LNCaP [8]", "value": "Active"}, {"measurement": "Activity", "setting": "LNCaP [9]", "value": "Active"}, {"measurement": "Activity", "setting": "LNCaP [10]", "value": "Active"}, {"measurement": "Activity", "setting": "LNCaP [11]", "value": "Active"}, {"measurement": "Activity", "setting": "LNCaP [12]", "value": 87.6, "unit": "%"}, {"measurement": "Activity", "setting": "LNCaP [13]", "value": 49.9, "unit": "%"}, {"measurement": "Activity", "setting": "LNCaP [14]", "value": 29.9, "unit": "%"}, {"measurement": "Activity", "setting": "LNCaP [15]", "value": "Active"}, {"measurement": "Activity", "setting": "LNCaP [16]", "value": "Active"}]}
{"smiles": "COC(=O)C12OC(=O)C(CC=C(C)C)(CC=C(C)C)C1C(=O)c1c(O)cc3c(c1O2)C=CC(C)(C)O3", "note": "(racemic)", "values": [{"measurement": "Activity", "setting": "LNCaP [2]", "value": "Active"}]}
{"smiles": "CC(C)=CCCC(C)(O)[C@@H]1C[C@@]2(CC=C(C)C)C(=C(O)C(=O)c3oc4c5c(cc(O)c4c(=O)c32)OC(C)(C)C=C5)O1", "note": "(stereo partly specified)", "values": [{"measurement": "Activity", "setting": "LNCaP [2]", "value": "Active"}]}
{"smiles": "COC(=O)C1(O)C(=O)C(CC=C(C)C)(CC=C(C)C)c2c1oc1c3c(cc(O)c1c2=O)OC(C)(C)C=C3", "note": "(stereo unspecified)", "values": [{"measurement": "Activity", "setting": "LNCaP [2]", "value": "Active"}]}
{"smiles": "COC(=O)c1oc2c(CC=C(C)C)c(O)cc(O)c2c(=O)c1C(CC=C(C)C)(CC=C(C)C)C(=O)O", "values": [{"measurement": "Activity", "setting": "LNCaP [2]", "value": "Active"}]}
{"smiles": "CC(C)=CCC/C(C)=C/C[C@@]12C[C@H](C(C)(C)O)OC1=C(O)C(=O)c1oc3c4c(cc(O)c3c(=O)c12)OC(C)(C)C=C4", "values": [{"measurement": "Activity", "setting": "LNCaP [2]", "value": "Active"}]}
{"smiles": "CC(C)=CCCC(C)(O)[C@@H]1C[C@@]23CC=C(C)CO[C@]2(O1)C(=O)c1oc2c4c(cc(O)c2c(=O)c13)OC(C)(C)C=C4", "note": "(stereo partly specified)", "values": [{"measurement": "Activity", "setting": "LNCaP [2]", "value": "Active"}]}
{"smiles": "CC(C)=CCc1c(O)cc(O)c2c(=O)c3c(oc12)C(=O)[C@@]1(O)C(=O)[C@]3(CC=C(C)C)C[C@@H]2C(C)(C)CCC[C@]21C", "values": [{"measurement": "Activity", "setting": "LNCaP [2]", "value": "Active"}]}
{"smiles": "CC(=O)O[C@H]1C(=O)[C@@]2(C)[C@H]([C@H](OC(=O)c3ccccc3)[C@]3(O)C[C@H](OC(=O)[C@H](O)[C@@H](NC(=O)c4ccccc4)c4ccccc4)C(C)=C1C3(C)C)[C@]1(OC(C)=O)CO[C@@H]1C[C@@H]2O", "note": "[PACLITAXEL]", "values": [{"measurement": "Activity", "setting": "LNCaP [2]", "value": "inactive"}, {"measurement": "Activity", "setting": "LNCaP [17]", "value": 7.08, "unit": "%"}, {"measurement": "Activity", "setting": "LNCaP [18]", "value": 92.9, "unit": "%"}]}
